This passage reports MIC and LD50 results from US4285939A, “Cephalosporin derivatives, and antibacterial drugs containing the derivatives” (Eisai Co., Ltd., priority 1979, dated 1981).

The test system of data set [1] is Staphylococcus aureus 209P. In words: Minimal inhibitory concentration, standard agar dilution method (Staphylococcus aureus). The class given is cell-based. The method, then:
(§1) Minimal inhibitory concentration (MIC) was determined by the standard agar dilution method of the Japan Society of Chemotherapy.
(§2) The compounds described in Examples 1, 2 and 5 were dissolved in sterilized water; the compound described in Example 4 was dissolved in acetone-water (1:1); and the control compounds, cephaloglycin and cephalexin monohydrate, were dissolved in a 3% sodium hydrogen carbonate solution.
(§3) Serial two-fold dilutions were made from the above solutions.
(§4) One-ml aliquots of each dilution were mixed with 9 ml of Heart influsion agar in petri-dishes to make agar plates containing the compound at serially diluted concentrations. After agar hardened, plates were put in an incubator at 37° C. for 1.5-2 hours with the lids slightly open to evaporate acetone off the plates.
(§5) Test organisms were grown for 18 hours at 37° C. in Trypticase Soy broth and diluted in saline to approximately 10^6 colony forming units per ml. A loopful of each cell suspension was applied on the agar plate mentioned above and the plates were incubated for 18 hours at 37° C. before MIC was determined.
(§6) MIC values of the compounds described in Examples 1, 2 and 5 were determined as their sodium salts and the compound described in Example 4 was determined as a free carboxylic acid.
A general note: In agar dilution, organisms are placed on agar that contains the substance at set levels.

In a further data set the test system is Escherichia coli NIHJ. In words: Minimal inhibitory concentration, standard agar dilution method (Escherichia coli). The class given is cell-based. The method, then:
as §1, §2, §3, §4, §5, §6

Data set [2] has as its system Pseudomonas aeruginosa EP-172. In words: Minimal inhibitory concentration, standard agar dilution method (Pseudomonas aeruginosa). It is filed as cell-based. Here is the method:
as §1, §2, §3, §4, §5, §6

In data set [3] the test system is Klebsiella pneumoniae EK-6. Briefly: Minimal inhibitory concentration, standard agar dilution method (Klebsiella pneumoniae). The class given is cell-based. Here is the method:
as §1, §2, §3, §4, §5, §6

For the next data set, the system named is Proteus morganii EP-14. Briefly: Minimal inhibitory concentration, standard agar dilution method (Proteus morganii). The following applies: Morganella morganii. The class given is cell-based. The method, then:
as §1, §2, §3, §4, §5, §6

For data set [4], the system named is Serratia marcescens ES-75. Briefly: Minimal inhibitory concentration, standard agar dilution method (Serratia marcescens). The class given is cell-based. The method, then:
as §1, §2, §3, §4, §5, §6

The nature of data set [5]: acute toxicity test (mouse, oral). The following applies: in vivo. The source says:
Moreover, it has been confirmed that the compounds of this invention show low toxicity in the toxicity test. For example, the acute toxicity values [LD50 (mouse, oral)] for the following compounds were over 5 g/kg: […]

[6] abbreviates: Staphylococcus aureus 209P, agar dilution, 18 hours at 37° C., Examples 1, 2, 5 as sodium salts, Example 4 as free acid, read-out: MIC.
The mark [7] stands for this setting: Escherichia coli NIHJ, agar dilution, 18 hours at 37° C., Examples 1, 2, 5 as sodium salts, Example 4 as free acid, read-out: MIC.
[8] abbreviates: EP172, Pseudomonas aeruginosa EP-172, agar dilution, 18 hours at 37° C., Examples 1, 2, 5 as sodium salts, Example 4 as free acid, read-out: MIC.
Where [9] appears, read: EK6, Klebsiella pneumoniae EK-6, agar dilution, 18 hours at 37° C., Examples 1, 2, 5 as sodium salts, Example 4 as free acid, read-out: MIC.
Setting [10] is: EP14, Proteus morganii EP-14, agar dilution, 18 hours at 37° C., Examples 1, 2, 5 as sodium salts, Example 4 as free acid, read-out: MIC.
Setting [11] is: ES75, Serratia marcescens ES-75, agar dilution, 18 hours at 37° C., Examples 1, 2, 5 as sodium salts, Example 4 as free acid, read-out: MIC.

Molecules are shown by their SMILES. Read-outs that look alike come from different tables or passages of the source. Some results are limits rather than exact numbers.

Turning to `CC1=C(C(=O)O)N2C(=O)[C@@H](NC(=O)[C@H](N)c3ccccc3)[C@H]2SC1` [Cephalexin mono-hydrate, cephalexin monohydrate, reference compound], the MIC (commonly the lowest concentration found to suppress growth) was 1.56 µg/mL in data set [1] (Staphylococcus aureus, 209P, 18 h); 6.25 µg/mL with Escherichia coli NIHJ (Escherichia coli, 18 h); above 100 µg/mL in data set [2] (Pseudomonas aeruginosa, EP172, 18 h); 3.13 µg/mL in data set [3] (Klebsiella pneumoniae, EK6, 18 h); above 100 µg/mL in the data set on Proteus morganii EP-14 (EP14, 18 h); above 100 µg/mL in data set [4] (Serratia marcescens, ES75, 18 h).

Regarding `CC(=O)OCC1=C(C(=O)O)N2C(=O)[C@@H](NC(=O)[C@H](N)c3ccccc3)[C@H]2SC1` [Cephaloglycin, cephaloglycin, reference compound], the MIC in data set [1] (setting [6]) was 0.8 µg/mL; in the data set with Escherichia coli NIHJ (setting [7]), 3.13 µg/mL; in data set [2] (setting [8]) it was above 100 µg/mL; in data set [3] (setting [9]) it was 1.56 µg/mL; with Proteus morganii EP-14 (setting [10]), 25 µg/mL; in data set [4] (setting [11]), above 100 µg/mL.

With `CC(=O)OCC1=C(C(=O)O)N2C(=O)[C@@H](NC(=O)[C@H](NC(=O)c3coc4cc(OC(C)=O)c(OC(C)=O)cc4c3=O)c3ccccc3)[C@H]2SC1` [Example 1, 7β-[D-2-(6,7-Diacetoxychromone-3-carboxamido)-2-phenylacetamido]-3-acetoxymethyl-3-cephem-4-carboxylic acid], the MIC is 3.13 µg/mL in data set [1] (setting [6]); 1.56 µg/mL with Escherichia coli NIHJ (setting [7]); 0.8 µg/mL in data set [2] (setting [8]); at most 0.1 µg/mL in data set [3] (setting [9]); 50 µg/mL in the data set on Proteus morganii EP-14 (setting [10]); 0.4 µg/mL in data set [4] (setting [11]).

As to `CC(=O)OCC1=C(C(=O)O)N2C(=O)[C@@H](NC(=O)[C@H](NC(=O)c3coc4cc(O)c(O)cc4c3=O)c3ccccc3)[C@H]2SC1` [Example 2, 7β-[D-2-(6,7-Dihydroxychromone-3-carboxamido)-2-phenylacetamido]-3-acetoxymethyl-3cephem-4-carboxylic acid], the MIC is 1.56 µg/mL in data set [1] (setting [6]); 0.8 µg/mL with Escherichia coli NIHJ (setting [7]); 0.8 µg/mL in data set [2] (setting [8]); at most 0.1 µg/mL in data set [3] (setting [9]); 12.5 µg/mL in the data set on Proteus morganii EP-14 (setting [10]); 0.2 µg/mL in data set [4] (setting [11]). Besides, in data set [5], the LD50 (as a rule, the dose expected to kill half of the subjects tested) is above 5000 mg/kg.

For `CC(=O)OCC1=C(C(=O)O)N2C(=O)[C@@H](NC(=O)[C@H](NC(=O)c3coc4c(OC(C)=O)c(OC(C)=O)ccc4c3=O)c3ccccc3)[C@H]2SC1` [Example 4, 7β-[D-2-(7,8-Diacetoxychromone-3-carboxamido)-2-phenylacetamido]-3-acetoxymethyl-3-cephem-4-carboxylic acid], the MIC in data set [1] (setting [6]) is 1.56 µg/mL; with Escherichia coli NIHJ (setting [7]), 0.8 µg/mL; in data set [2] (setting [8]) it was 1.56 µg/mL; in data set [3] (setting [9]), at most 0.1 µg/mL; in the data set with Proteus morganii EP-14 (setting [10]), 3.13 µg/mL; in data set [4] (setting [11]), 0.8 µg/mL.

As to `CC(=O)OCC1=C(C(=O)O)N2C(=O)[C@@H](NC(=O)[C@H](NC(=O)c3coc4c(O)c(O)ccc4c3=O)c3ccccc3)[C@H]2SC1` [Example 5, 7β-[D-2-(7,8-Dihydroxychromone-3-carboxamido)-2-phenylacetamido]-3-acetoxymethyl-3-cephem-4-carboxylic acid], the MIC in data set [1] (setting [6]) is 1.56 µg/mL; with Escherichia coli NIHJ (setting [7]), 3.13 µg/mL; in data set [2] (setting [8]), 1.56 µg/mL; in data set [3] (setting [9]), 0.2 µg/mL; in the data set with Proteus morganii EP-14 (setting [10]), 12.5 µg/mL; in data set [4] (setting [11]) it was 1.56 µg/mL.
